# Reference: US20130295154A1, “POLY(METH)ACRYLATE BASED MICROCAPSULES COMPRISING PHEROMONE” (BASF SE, priority 2011, published 2013)
# Tested on: male codling moths
# Test: Wind tunnel test, behavioral responses of male codling moths
# Type: in vivo, Cydia pomonella (codling moth)
# [1] = Example 6, mean percentage, 100000 μg alone
# [2] = Example 5, 100 μg alone, initial values
# [3] = Example 6, mean percentage, 100 μg alone
Structure (SMILES),Oriented Flight of Males [1] [%],Source Contact of Males [1] [%],Upwind Response of Males [1] [%],Oriented Flight of Males [2],Source Contact of Males [2],Upwind Response of Males [2],Oriented Flight of Males [3] [%],Source Contact of Males [3] [%],Upwind Response of Males [3] [%]
CCCCCOC(C)=O [amyl acetate],5,0,30,–,–,–,–,–,–
CCCCCCCCCCCCO [dodecanol],0,0,20,–,–,–,–,–,–
COC(=O)c1ccccc1O [methyl salicylate],0,0,25,–,–,–,–,–,–
"CC(C)=CCC/C(C)=C/CC/C(C)=C/CO [E,E-farnesol]",0,0,25,–,–,–,–,–,–
"C/C=C/C=C/CCCCCCCO [codlemone, (E,E)-8,10-dodecadien-1-ol]",–,–,–,55,40,60,60,50,70
"CCOC(=O)CC(C)C [ethyl isovalerate, ethyl 3-methylbutanoate]",10,0,30,–,–,–,–,–,–
"CCCCC/C=C\C=C\C(=O)OCC [pear ester, ethyl (2E,4Z)-decadienoate]",0,0,27,–,–,–,–,–,–
